Target: T1, mGPR65 (Mus musculus, UniProt Q61038)
T1 construct: expressed in transfected cells; host or cells: HeLa (ATCC CCL-2), lentiviral transduction, pLX317
Experiment: cAMP detection, GPR65 KO HeLa reconstituted with mGPR65
Format: cell-based
Details: 0 to 50 μM, pH 7.2
Method: The Lance Ultra cAMP Kit (PerkinElmer, TRF0264) was used for cAMP detection, and included the following reagents: ULight anti-cAMP antibody, Eu-cAMP tracer, 7.5% BSA Stabilizer solution, and cAMP detection buffer. Stimulation buffer was prepared as described by the kit manufacturer as follows: Hanks buffered saline solution (HBSS, Life Technologies, 14025-126) containing 0.5 mM IBMX (3-isobutyl-1-methylxanthine, Sigma-Aldrich, I7018) and buffered with 1 M Hepes (15630-080). […] HeLa cells were lifted using Versene and then suspended at 2.5 × 10^5 cells/ml in stimulation buffer. Cells were then plated at 20 μl per well (5000 cells per well) in white, opaque OptiPlate 384-well MicroPlates (PerkinElmer, 6007299) using a Thermo Fisher Scientific Combi liquid dispenser. […] Eu-cAMP tracer and Förster resonance energy transfer (FRET) emissions were then read using a PerkinElmer EnVision Multimode plate reader (ENVISION21040010), exciting each well at 320 nm [UV2 (TRF) 320 filter] and reading emissions at 615 nm (Europium 615 filter) and 665 nm (APC665 filter). […]

T1 sequence (Q61038 whole entry): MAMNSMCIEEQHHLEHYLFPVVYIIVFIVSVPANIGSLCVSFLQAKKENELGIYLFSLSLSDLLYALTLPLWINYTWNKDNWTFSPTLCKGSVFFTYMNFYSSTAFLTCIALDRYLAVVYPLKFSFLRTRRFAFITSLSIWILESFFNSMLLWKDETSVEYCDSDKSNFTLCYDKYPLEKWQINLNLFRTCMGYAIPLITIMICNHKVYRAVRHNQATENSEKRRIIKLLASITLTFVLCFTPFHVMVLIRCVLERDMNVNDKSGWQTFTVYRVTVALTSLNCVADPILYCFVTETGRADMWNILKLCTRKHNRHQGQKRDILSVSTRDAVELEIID

With `CN1N=C(SCc2ccc(Cl)cc2Cl)Sc2c1cnn(C)c2=O` [BTB09089, reference compound] as the compound, how does the “cAMP response, BTB09089 compared with BRD2813” value read?
Its value is “more effective”.
